Results on 6 compounds are retold here after paper PMC8936434 (Frontiers in Pharmacology, 2022).

Where two headings read alike, the source gives them in different places.

The nature of data set [1]: In vitro P-gp assay: antiproliferative activity in P-gp-overexpressing SW1573/P-gp cells. Conditions: human. The procedure: (§1) Compounds were tested against both cell lines in the presence or absence of 10 µM verapamil (a known P-gp and CYP3A4/5 inhibitor).
Another data set has as its system SW1573. As to the kind of experiment: In vitro P-gp assay: antiproliferative activity in wild-type SW1573 cells. The format is cell-based. Conditions: Homo sapiens. The procedure:
as §1

The target of another data set is hERG K+ channel (Kv11.1) (Homo sapiens, UniProt Q12809). As to the kind of experiment: hERG (Kv11.1) current, whole-cell patch-clamp in hERG-HEK293 cells. Format: cell-based. As for the experimental part:
hERG-HEK293 cells (BPS Bioscience, San Diego, United States), expressing hERG K^+ channel (Kv11.1), were cultured in Minimal Essential Medium (MEM) supplemented with 10% fetal bovine serum, 1% non-essential amino acids, 1% Na pyruvate, 1% penicillin/streptomycin, and 400 μg/ml geneticin ([Lazzerini et al., 2021]).
The bath solution contained (in mM): 136 NaCl, 5.4 KCl, 10 HEPES, 10 D-glucose ∙ H2O, 1 CaCl2 ∙ 2 H2O, 1 MgCl2 ∙ 6 H2O, pH 7.4 with NaOH, whereas the pipette solution consisted of (in mM): 130 KCl, 10 EGTA, 10 HEPES, 5 MgATP, 1 MgCl2 ∙ 6 H2O, pH 7.2 with KOH.
Whole-cell recording was performed as previously described ([Lazzerini et al., 2021]), and a depolarizing step from a holding potential of […] was applied to elicit the Kv11.1 current. Tail current was evoked by repolarizing the cell membrane to −50 mV for 4 s.

The subject of data set [2] is HepG2 cells. As to the kind of experiment: LDH release from HepG2 cells. The format is cell-based, Human.
Data set [3] relates to primary rat hepatocytes. As to the kind of experiment: Primary rat hepatocyte viability (trypan blue exclusion assay). Conditions: read-out: IC50, number of viable cells. Format: cell-based.
Data set [4] deals with HepG2 cells. The data set can be described thus: HepG2 cell viability (MTT assay). Format: cell-based. The conditions noted are these: Homo sapiens, mean ± SD, 3 experiments. As for the experimental part:
Human hepatoma (HepG2) cells (European Collection of Authenticated Cell Cultures) were cultured in Dulbecco’s modified Eagle’s medium (DMEM) supplemented with 10% heat-inactivated fetal bovine serum (FBS) and 2 mM L-glutamine at 37°C in 5% CO2 humidified atmosphere.

The subject of data set [5] is primary rat hepatocytes. The data set can be described thus: LDH release from primary rat hepatocytes. The format is cell-based.
The next data set concerns zebrafish ABCB4. Further details: method as in earlier work. Conditions: concentrations up to 100 µM; ref [67]; cited from earlier work.
The subject of a further data set is zebrafish embryos. The data set can be described thus: Zebrafish embryo toxicity.
The target in a further data set is recombinant human CYP3A4 (Homo sapiens, UniProt P08684). As to the kind of experiment: In vitro inhibition of human CYP3A4.
In data set [6] the test system is primary rat hepatocytes. As to the kind of experiment: Lipid peroxidation (MDA) in primary rat hepatocytes. Conditions: compared to Dox.
The subject of data set [7] is primary rat hepatocytes. As to the kind of experiment: GSH depletion in isolated rat hepatocytes. The format is cell-based. The conditions noted are these: compared to Dox. The procedure: Gluthatione (GSH) depletion was evaluated after 24, 48, or 72 h treatment with both anthracyclines. Isolated rat hepatocytes were centrifuged at 400 g for 3 min, and the pellet was used for measuring intracellular GSH by means of the spectrophotometric method based on the conversion of the sulfhydryl reagent 5,5′-dithiobis-(2-nitrobenzoic acid) (DTNB) to the yellow derivative 5′-thio-2-nitrobenzoic acid (TNB) at 412 nm ([Fau et al., 1992]).

A further data set relates to SW1573/P-gp. The data set can be described thus: In vitro P-gp assay: antiproliferative activity in P-gp-overexpressing SW1573/P-gp cells. Conditions: P-gp-overexpressing cells. As for the experimental part: as §1
[8] abbreviates: 10 µM applied at 6 hpf, read at 72 hpf.

hERG K+ channel (Kv11.1), sequence (Q12809 whole entry): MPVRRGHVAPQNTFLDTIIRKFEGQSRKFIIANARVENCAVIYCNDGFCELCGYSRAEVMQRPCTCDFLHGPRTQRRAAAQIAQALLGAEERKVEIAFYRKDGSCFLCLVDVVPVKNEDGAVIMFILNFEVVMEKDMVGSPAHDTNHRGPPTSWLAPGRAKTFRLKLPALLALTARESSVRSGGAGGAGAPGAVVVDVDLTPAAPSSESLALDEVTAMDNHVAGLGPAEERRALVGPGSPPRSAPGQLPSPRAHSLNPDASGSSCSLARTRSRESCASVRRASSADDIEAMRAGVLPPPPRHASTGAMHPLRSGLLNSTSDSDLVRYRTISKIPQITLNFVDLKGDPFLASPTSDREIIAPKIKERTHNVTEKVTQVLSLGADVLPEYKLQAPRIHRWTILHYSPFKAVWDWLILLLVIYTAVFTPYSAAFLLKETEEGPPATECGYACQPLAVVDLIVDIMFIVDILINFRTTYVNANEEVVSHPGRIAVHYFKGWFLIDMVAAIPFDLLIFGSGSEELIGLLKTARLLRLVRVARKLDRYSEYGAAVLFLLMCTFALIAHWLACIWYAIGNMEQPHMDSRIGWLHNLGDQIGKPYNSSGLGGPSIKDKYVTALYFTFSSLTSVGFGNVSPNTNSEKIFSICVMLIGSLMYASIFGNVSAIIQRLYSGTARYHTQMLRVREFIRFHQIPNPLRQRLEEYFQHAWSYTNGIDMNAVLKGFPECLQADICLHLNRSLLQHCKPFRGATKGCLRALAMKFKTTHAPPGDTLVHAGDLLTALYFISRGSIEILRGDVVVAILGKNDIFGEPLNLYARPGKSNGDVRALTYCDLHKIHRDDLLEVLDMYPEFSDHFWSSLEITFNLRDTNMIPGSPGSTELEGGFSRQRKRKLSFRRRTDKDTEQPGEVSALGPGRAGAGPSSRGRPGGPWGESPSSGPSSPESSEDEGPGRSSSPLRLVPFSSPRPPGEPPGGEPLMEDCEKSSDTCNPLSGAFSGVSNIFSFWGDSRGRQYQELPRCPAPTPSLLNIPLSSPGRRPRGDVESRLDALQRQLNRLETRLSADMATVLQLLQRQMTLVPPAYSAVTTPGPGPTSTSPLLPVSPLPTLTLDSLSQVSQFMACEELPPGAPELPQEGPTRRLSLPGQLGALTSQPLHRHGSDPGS
recombinant human CYP3A4, sequence (P08684 whole entry): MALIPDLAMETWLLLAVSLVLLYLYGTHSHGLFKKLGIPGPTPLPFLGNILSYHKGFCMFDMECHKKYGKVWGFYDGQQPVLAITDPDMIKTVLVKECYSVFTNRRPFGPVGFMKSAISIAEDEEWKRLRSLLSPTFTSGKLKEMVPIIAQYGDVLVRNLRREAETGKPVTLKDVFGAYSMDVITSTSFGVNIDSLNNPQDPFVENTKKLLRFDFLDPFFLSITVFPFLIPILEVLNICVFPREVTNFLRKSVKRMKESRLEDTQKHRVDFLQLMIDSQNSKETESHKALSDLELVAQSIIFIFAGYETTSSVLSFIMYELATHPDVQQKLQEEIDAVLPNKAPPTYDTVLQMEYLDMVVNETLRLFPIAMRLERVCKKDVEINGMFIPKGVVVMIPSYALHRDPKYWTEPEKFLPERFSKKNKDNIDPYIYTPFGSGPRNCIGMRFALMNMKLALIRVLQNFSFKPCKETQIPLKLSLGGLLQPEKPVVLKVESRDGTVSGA
Method for recombinant human CYP3A4: Kinetic assays were carried out in a final volume of 100 µl containing 10 µM substrate, 2.5 nM recombinant CYP3A4, various concentrations of the tested compounds, and 20% NADPH regenerating system in 100 mM Tris–HCl (pH 7.4). Incubations took place in duplicate at 37°C in 96-multiwell plates; fluorescence was measured with a Victor2 plate reader (PerkinElmer Life Sciences, Turku, Finland). The reaction was started by adding NADPH, and fluorescence was measured at 2-min intervals for 40 min using excitation at 405 nm and emission at 460 nm.
Method for zebrafish embryos: After 30 min, the eggs were collected, rinsed twice from debris using fresh embryo medium (Instant ocean), and transferred into Petri dishes containing the embryo medium.
Fertilized eggs were selected under a binocular stereomicroscope (PXS-VI, Optica) and transferred into 24-well plates. […] The embryo medium and 0.1% DMSO were used as controls. Treated embryos and controls were then incubated at 28 ± 0.5°C. Each experiment was repeated three times from three independent breedings. In each experiment, at least 3 wells with 12 embryos per treatment per concentration were used.
The zebrafish embryo toxicity assay was performed when fertilization rate was ≥90%. An assay was considered valid if the overall survival of embryos in negative controls was ≥90% until hatching.
All embryos were inspected for morphological characteristics at different developmental stages (48 and 72 hpf) as described by [Kimmel (1989)]. Lethal and teratogenic effects were recorded according to the Organisation for Economic Co-operation and Development (OECD) (236) guidelines for testing of chemicals. Mortality was determined by counting embryos with or without a visible heart beat at 72 hpf. For visual documentation of the malformations and heartbeat, embryos were imaged and recorded using a camera connected to the microscope (CKX41; Olympus, Tokyo, Japan). Each heartbeat was manually counted for 20 s and multiplied by 3 to calculate heart rate (beat/minute) ([Hoage et al., 2012]). At least three embryos per group were recorded and their heart beat counted.

In data set [1], `COc1cc2c(c(OC)c1OC)-c1ccc(OC)c(=O)cc1[C@@H](NC(C)=O)CC2` [Colchicine, colchicine] had a GI50 at 48 h of 2370 nM. In the data set with SW1573 (SW1573, 48 h), it took 67 ± 15 nM to inhibit growth by half (GI50).

Consider `COc1cccc2c1C(=O)c1c(O)c3c(c(O)c1C2=O)C[C@@](O)(C(=O)CO)C[C@@H]3O[C@H]1C[C@H](N)[C@H](O)[C@H](C)O1` [Dox, doxorubicin], for which the “Effect on hERG currents” value at hERG K+ channel (Kv11.1) (up to 100 μM) is reported as “did not affect”. Also, the “LDH release (cytotoxicity) compared with Sdox” value in the data set with HepG2 cells [2] (HepG2, regardless of timing of exposure (24, 48, 72 h)) is “cytotoxic at concentrations lower than those of Sdox”. Besides, the IC50 came to 9680 ± 890 nM in the data set on primary rat hepatocytes [3], 6110 ± 660 nM with HepG2 cells [4] (24 h), 460 ± 30 nM in the data set with HepG2 cells [4] (48 h) and 190 ± 10 nM in the data set with HepG2 cells [4] (72 h). For the same compound, in data set [1], the concentration for 50% growth inhibition (GI50) at 48 h came out at 1600 nM. The GI50 with SW1573 (SW1573, 48 h) worked out at 70 ± 8.6 nM. Further, the “Release of LDH” value with primary rat hepatocytes [5] is “increased the release of LDH in a concentration-dependent manner”. The “Effect on zebrafish ABCB4 ATPase activity” value in the data set with zebrafish ABCB4 is given as “no major effect”.

Take `CC(=O)O[C@H]1C(=O)[C@@]2(C)[C@H]([C@H](OC(=O)c3ccccc3)[C@]3(O)C[C@H](OC(=O)[C@H](O)[C@@H](NC(=O)c4ccccc4)c4ccccc4)C(C)=C1C3(C)C)[C@]1(OC(C)=O)CO[C@@H]1C[C@@H]2O` [Paclitaxel, paclitaxel]: the GI50 at 48 h in [1] was found to be 298 ± 113 nM. For the same compound, in the data set with SW1573 (SW1573, 48 h), the 50% growth inhibitory concentration (GI50) was 0.53 ± 0.22 nM.

As for `COc1cccc2c1C(=O)c1c(O)c3c(c(O)c1C2=O)C[C@@](O)(C(=O)COC(=O)c1ccc(-c2ssc(=S)c2-c2ccccc2)cc1)C[C@@H]3O[C@H]1C[C@H](N)[C@H](O)[C@H](C)O1` [Sdox, 2-((2S,4S)-4-(((2R,4S,5S,6S)-4-amino-5-hydroxy-6-methyltetrahydro-2H-pyran-2-yl)oxy)-2,5,12-trihydroxy-7-methoxy-6,11-dioxo-1,2,3,4,6,11-hexahydrotetracen-2-yl)-2-oxoethyl 4-(4-phenyl-3-thioxo-3H-1,2-dithiol-5-yl)benzoate], the “Effect on number of live embryos” value with zebrafish embryos (setting [8]) is reported as “ineffective”. This compound came in with an Embryos alive in the data set with zebrafish embryos (setting [8]) of around 90%. Also, the Developmental toxicity entry with zebrafish embryos (10 µM, 72 hpf) is on record as “did not display developmental toxicity”. Further, the “Concentration above which a precipitate was observed” value in the data set on zebrafish embryos (zebrafish embryo medium) is above 10 µM. The IC50 is 3100 nM at recombinant human CYP3A4; 16500 ± 1010 nM in the data set with primary rat hepatocytes [3]; 8690 ± 310 nM with HepG2 cells [4] (24 h); 3210 ± 160 nM in the data set with HepG2 cells [4] (48 h); 1390 ± 30 nM in the data set on HepG2 cells [4] (72 h). Further, the “Effect on hERG currents” value at hERG K+ channel (Kv11.1) (up to 10 μM) is reported as “did not affect”. In addition, the “MDA levels (index of lipid peroxidation)” value in the data set on primary rat hepatocytes [6] is given as “lower increase in the MDA levels”. For the same compound, the “Concentration at which LDH release was increased” value in the data set on HepG2 cells [2] (HepG2, 24 and 48 h of treatment, only at the maximum concentration tested) was determined as 10 µM. The “Lowest concentration at which LDH release was increased” value in the data set with HepG2 cells [2] (HepG2, 72 h of treatment) came to 4 µM. Besides, in the data set with primary rat hepatocytes [7], the “Reduced GSH” value is on record as “lower decrease in the reduced GSH”. Further, the “Times less affected by P-gp compared with parent compound Dox” value in the data set with SW1573/P-gp is “ca. 6.5 times”. In addition, the GI50 in data set [1] worked out at 3020 nM; in the data set on SW1573 (SW1573, 48 h), 873 ± 410 nM. Further, the “Release of LDH” value in the data set on primary rat hepatocytes [5] is reported as “increased the release of LDH in a concentration-dependent manner”.

Consider `CC[C@]1(O)C[C@@H]2CN(CCc3c([nH]c4ccccc34)[C@@](C(=O)OC)(c3cc4c(cc3OC)N(C)[C@H]3[C@@](O)(C(=O)OC)[C@H](OC(C)=O)[C@]5(CC)C=CCN6CC[C@]43[C@@H]65)C2)C1` [Vinblastine, vinblastine], for which the concentration for 50% growth inhibition (GI50) at 48 h in [1] turned out to be 16 ± 4.7 nM. Moreover, the GI50 in the data set with SW1573 (SW1573, 48 h) was 0.94 ± 0.35 nM.

Compound `CC[C@]1(O)C[C@H]2CN(CCc3c([nH]c4ccccc34)[C@@](C(=O)OC)(c3cc4c(cc3OC)N(C=O)[C@H]3[C@@](O)(C(=O)OC)[C@H](OC(C)=O)[C@]5(CC)C=CCN6CC[C@]43[C@@H]65)C2)C1` [Vincristine, vincristine] gave a GI50 at 48 h in data set [1] (SW1573/P-gp cells (P-gp-overexpressing variant of SW1573)) of 86 ± 15 nM. Also, the 50% growth inhibitory concentration (GI50) in the data set on SW1573 (SW1573, w/o verapamil, 48 h exposure, mean ± SD (n = 3–5), read-out: GI50) was determined as 3.9 ± 1.5 nM.
